Experimental data as given in US20250230165A1, “HETEROCYCLIC COMPOUNDS FOR USE IN THE TREATMENT OF CANCER” (ARTIOS PHARMA LIMITED, priority 2021, published 2025).

Target: T1, Human Polθ polymerase domain (aa1820-2590) (Homo sapiens, UniProt O75417)
T1 construct: Human Polθ polymerase domain (aa1820-2590) was expressed in E. coli; made in house; host or cells: E. coli
T1 sequence (O75417 1820-2590): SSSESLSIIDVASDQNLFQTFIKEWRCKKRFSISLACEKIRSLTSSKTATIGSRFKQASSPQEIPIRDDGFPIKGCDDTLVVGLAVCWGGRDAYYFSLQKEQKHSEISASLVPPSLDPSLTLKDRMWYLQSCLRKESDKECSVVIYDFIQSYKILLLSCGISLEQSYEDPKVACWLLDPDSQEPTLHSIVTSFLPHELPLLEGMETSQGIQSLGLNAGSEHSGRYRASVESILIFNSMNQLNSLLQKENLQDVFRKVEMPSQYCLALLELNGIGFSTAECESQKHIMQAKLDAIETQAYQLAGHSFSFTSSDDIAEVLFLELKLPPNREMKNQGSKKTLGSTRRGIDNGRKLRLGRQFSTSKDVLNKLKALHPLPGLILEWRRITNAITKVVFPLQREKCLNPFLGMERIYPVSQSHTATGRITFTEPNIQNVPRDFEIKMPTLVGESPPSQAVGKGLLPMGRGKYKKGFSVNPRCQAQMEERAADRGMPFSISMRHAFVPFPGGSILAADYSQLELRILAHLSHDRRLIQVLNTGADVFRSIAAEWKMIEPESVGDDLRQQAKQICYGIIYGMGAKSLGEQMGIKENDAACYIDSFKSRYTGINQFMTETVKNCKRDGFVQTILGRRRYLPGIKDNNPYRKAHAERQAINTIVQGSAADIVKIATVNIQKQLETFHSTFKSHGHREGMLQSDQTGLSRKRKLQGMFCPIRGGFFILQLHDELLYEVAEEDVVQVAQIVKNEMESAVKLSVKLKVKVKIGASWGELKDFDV
Assay: Polθ Polymerase Domain Kinact/KI Assay (PicoGreen)
Assay type: biochemical
Conditions: 0.8 nM Polθ, 100 nM DNA substrate, kobs vs [I] fit for 2-step covalent inhibitor
Method in brief: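 Covalent Kinact/KI by PicoGreen DNA synthesis readout: E. coli-expressed Polθ polymerase domain (0.8 nM), 100 nM annealed DNA substrate, […], Tris pH 7.5 buffer with DTT, 1% DMSO; EDTA-stopped over 0–60 min time course. kobs from progress curves, then kobs vs [I] fit to two-step covalent model.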

| Compound | Kinact/Kl [µM⁻¹ s⁻¹] |
| --- | --- |
| C=C(CN(C)C)C(=O)N1CCC[C@H]1c1ccc(CN2C[C@H]3CC(=O)N(c4cc(C(F)(F)F)cc(C)n4)[C@@H]3C(=O)N(C)c3cccc(F)c32)cc1 (racemic) [Example 171b, (3aR,11aS)-5-(4-((S/R)-1-(2-((di-methylamino)-methyl)acryloyl)-pyrrolidin-2-yl)-benzyl)-6-fluoro-10-methyl-1-(6-methyl-4-(tri-fluoromethyl)-pyridin-2-yl)-1,3a,4,5,10,11a-hexahydro-2H-benzo[b]pyrrolo [2,3-f][1,4]diazo-cine-2,11(3H)-dione] | 1.62 |
| C=CC(=O)N1CC(C)(N2CCC(CN3C[C@H]4CC(=O)N(c5cc(C(F)(F)F)cc(C)n5)[C@@H]4C(=O)N(C)c4cccc(Cl)c43)CC2)C1 [Example 137, (3aR,11aS)-5-((1-(1-acryloyl-3-methylazetidin-3-yl)piperidin-4-yl)methyl)-6-chloro-10-methyl-1-(6-methyl-4-(trifluoromethyl)pyridin-2-yl)-1,3a,4,5,10,11a-hexahydro-2H-benzo[b]pyrrolo[2,3-f][1,4]diazocine-2,11(3H)-dione] | 0.98 |
| Cc1cc(C(F)(F)F)cc(N2C(=O)C[C@@H]3CN(Cc4ccc5c(c4)[C@H](CC#N)N(C(=O)/C=C/CN(C)C)C5)c4c(Cl)cccc4N(C)C(=O)[C@H]32)n1 (racemic) [Example 311b, 2-((S/R)-6-(((3aR,11aS)-6-chloro-10-methyl-1-(6-methyl-4-(trifluoromethyl)pyridin-2-yl)-2,11-dioxo-1,2,3,3a,4,10,11,11a-octahydro-5H-benzo[b]pyrrolo[2,3-f][1,4]diazocin-5-yl)methyl)-2-((E)-4-(dimethylamino)but-2-enoyl)isoindolin-1-yl)acetonitrile] | 1.22 |
| C=CC(=O)N1CCC[C@H]1c1noc(CN2C[C@H]3CC(=O)N(c4cc(C(F)(F)F)cc(C)n4)[C@@H]3C(=O)N(C)c3cccc(C)c32)n1 [Example 269, (3aR,11aS)-5-((3-((S)-1-acryloylpyrrolidin-2-yl)-1,2,4-oxadiazol-5-yl)methyl)-6,10-dimethyl-1-(6-methyl-4-(trifluoromethyl)pyridin-2-yl)-1,3a,4,5,10,11a-hexahydro-2H-benzo[b]pyrrolo[2,3-f][1,4]diazocine-2,11(3H)-dione] | 0.97 |
| C=CC(=O)N1Cc2cc(CN3C[C@H]4CC(=O)N(c5cc(C(F)(F)F)cc(C)n5)[C@@H]4C(=O)N(C)c4cccc(Cl)c43)cnc2[C@H]1CO (racemic) [Example 231, (3aR,11aS)-5-(((S/R)-6-acryloyl-7-(hydroxymethyl)-6,7-dihydro-5H-pyrrolo[3,4-b]pyridin-3-yl)methyl)-6-chloro-10-methyl-1-(6-methyl-4-(trifluoromethyl)pyridin-2-yl)-1,3a,4,5,10,11a-hexahydro-2H-benzo[b]pyrrolo[2,3-f][1,4]diazocine-2,11(3H)-dione] | 0.86 |
| C=C(CO)C(=O)N1CCC(CCCN2C[C@H]3CC(=O)N(c4cc(C(F)(F)F)cc(C)n4)[C@@H]3C(=O)N(C)c3cccc(Cl)c32)CC1 [Example 168, (3aR,11aS)-6-chloro-5-(3-(1-(2-(hydroxymethyl)acryloyl)piperidin-4-yl)propyl)-10-methyl-1-(6-methyl-4-(trifluoromethyl)pyridin-2-yl)-1,3a,4,5,10,11a-hexahydro-2H-benzo[b]pyrrolo[2,3-f][1,4]diazocine-2,11(3H)-dione] | 1.97 |
| C=CC(=O)N1CC(N2CCN(CCN3C[C@H]4CC(=O)N(c5cc(C(F)(F)F)cc(C)n5)[C@@H]4C(=O)N(C)c4cccc(F)c43)C[C@@H]2CF)C1 [Example 28, (3aR,11aS)-5-(2-((R)-4-(1-acryloylazetidin-3-yl)-3-(fluoromethyl)piperazin-1-yl)ethyl)-6-fluoro-10-methyl-1-(6-methyl-4-(trifluoromethyl)pyridin-2-yl)-1,3a,4,5,10,11a-hexahydro-2H-benzo[b]pyrrolo[2,3-f][1,4]diazocine-2,11(3H)-dione] | 0.35 |
| C=CC(=O)N1Cc2nc(CN3C[C@H]4CC(=O)N(c5cc(C(F)(F)F)cc(C)n5)[C@@H]4C(=O)N(C)c4cccc(C)c43)cn2CC1C (single isomer, unassigned) [Example 206a] | 4.36 |
| C=CC(=O)N1CC(N2CCN(C(=O)CN3C[C@H]4CC(=O)N(c5cc(C(F)(F)F)cc(C)n5)[C@@H]4C(=O)N(C)c4cccc(Cl)c43)CC2)C1 [Example 75, (3aR,11aS)-5-(2-(4-(1-acryloylazetidin-3-yl)piperazin-1-yl)-2-oxoethyl)-6-chloro-10-methyl-1-(6-methyl-4-(trifluoromethyl)pyridin-2-yl)-1,3a,4,5,10,11a-hexahydro-2H-benzo[b]pyrrolo[2,3-f][1,4]diazocine-2,11(3H)-dione] | 1.32 |
| Cc1cc(C(F)(F)F)cc(N2C(=O)C[C@@H]3CN(CCCC(F)CNC(=O)/C=C/CN(C)C)c4c(Cl)cccc4N(C)C(=O)[C@H]32)n1 (stereo partly drawn) [Example 295, (E)-N-(5-((3aR,11aS)-6-chloro-10-methyl-1-(6-methyl-4-(trifluoromethyl)pyridin-2-yl)-2,11-dioxo-1,2,3,3a,4,10,11,11a-octahydro-5H-benzo[b]pyrrolo[2,3-f][1,4]diazocin-5-yl)-2-fluoropentyl)-4-(dimethylamino)but-2-enamide] | 1.62 |
| C=CC(=O)N1C[C@@H](n2cc(CN3C[C@H]4CC(=O)N(c5cc(C(F)(F)F)cc(C)n5)[C@@H]4C(=O)N(C)c4cccc(C)c43)cn2)[C@@H](F)C1 (single isomer, unassigned) [Example 325c] | 0.98 |
| C=CC(=O)NC1CCN(CCN2C[C@H]3CC(=O)N(c4cc(C(F)(F)F)cc(C)n4)[C@@H]3C(=O)N(C)c3cccc(Cl)c32)CC1(F)F (mixture of isomers) [Example 257b, N—((R/S)-1-(2-((3aR,11aS)-6-chloro-10-methyl-1-(6-methyl-4-(trifluoromethyl)pyridin-2-yl)-2,11-dioxo-1,2,3,3a,4,10,11,11a-octahydro-5H-benzo[b]pyrrolo[2,3-f][1,4]diazocin-5-yl)ethyl)-3,3-difluoropiperidin-4-yl)acrylamide] | 2.56 |
| C=CC(=O)N1CC(N(C)CCCN2C[C@H]3CC(=O)N(c4cc(C(F)(F)F)cc(C)n4)[C@@H]3C(=O)N(C)c3cccc(F)c32)C1 [Example 71, (3aR,11aS)-5-(3-((1-acryloylazetidin-3-yl)(methyl)amino)propyl)-6-fluoro-10-methyl-1-(6-methyl-4-(trifluoromethyl)pyridin-2-yl)-1,3a,4,5,10,11a-hexahydro-2H-benzo[b]pyrrolo[2,3-f][1,4]diazocine-2,11(3H)-dione] | 0.42 |
| (3aR,11aS)-5-(2-((3R/S,9aS/R)-8-acryloyl-3-methyl-4-oxooctahydro-2H-pyrazino[1,2-a]pyrazin-2-yl)ethyl)-6-fluoro-10-methyl-1-(6-methyl-4-(trifluoromethyl)pyridin-2-yl)-1,3a,4,5,10,11a-hexahydro-2H-benzo[b]pyrrolo[2,3-f][1,4]diazocine-2,11(3H)-dione [Example 107] | 0.42 |
| C=CC(=O)N1CC(n2ccc(CN3C[C@H]4CC(=O)N(c5cc(C(F)(F)F)cc(C)n5)[C@@H]4C(=O)N(C)c4cccc(F)c43)n2)C1 [Example 120, (3aR,11aS)-5-((1-(1-acryloylazetidin-3-yl)-1H-pyrazol-3-yl)methyl)-6-fluoro-10-methyl-1-(6-methyl-4-(trifluoromethyl)pyridin-2-yl)-1,3a,4,5,10,11a-hexahydro-2H-benzo[b]pyrrolo[2,3-f][1,4]diazocine-2,11(3H)-dione] | 0.89 |
| C=CC(=O)N1CCN2CCN(CCN3C[C@H]4CC(=O)N(c5cc(C(F)(F)F)cc(C)n5)[C@@H]4C(=O)N(C)c4cccc(F)c43)C(=O)[C@@H]2C1 [Example 45, (3aR,11aS)-5-(2-((S)-8-acryloyl-1-oxooctahydro-2H-pyrazino[1,2-a]pyrazin-2-yl)ethyl)-6-fluoro-10-methyl-1-(6-methyl-4-(trifluoromethyl)pyridin-2-yl)-1,3a,4,5,10,11a-hexahydro-2H-benzo[b]pyrrolo[2,3-f][1,4]diazocine-2,11(3H)-dione] | 0.31 |
